Experimental data from patent US8088623B2, “Dominant selection marker for the transformation of fungi” (priority 2003, dated 2012).
≈ marks a conversion by molar mass, not a printed value.

Key:
[1] = system: Pichia pastoris strain GS115; test: Soraphen A sensitivity of recipient strain GS115 on MM plates; format: cell-based; conditions: point and surface inoculation, 30° C., six days
Protocol: Two methods were used to determine the concentration of Soraphen A inhibitory to the growth of P. pastoris GS115. On the one hand MM plates containing 0 to 0.1 μg/ml Soraphen A were locally inoculated with 10^6 to 10^2 cells. On the other hand 5000 cells were streaked onto such plates. Inokulations were incubated in duplicate at 30° C. for six days; 100 μl of 100% methanol was added daily to the lid of the inverted plates.

[2] = system: Pichia pastoris transformant HWA4; test: Soraphen A sensitivity of transformant HWA4 (accA-D) on MM plates; format: cell-based; conditions: 30° C., six days
Protocol: (§1) Transformation of spheroplasts was carried out with 10 μg of Sal I-linearized plasmid pAO815-ACC3 or pAO815-ACC4 following the manufacturer's instructions. Transformants were selected on RDB plates and in a second selection round the obtained histidine prototroph clones were tested for Soraphen A sensitivity on MM plates containing Soraphen A (0-0.1 μg/ml).

[3] = system: Pichia pastoris transformant HWA3; test: Soraphen A sensitivity of transformant HWA3 (accA, accC, accD) on MM plates; format: cell-based; conditions: 30° C., six days
Protocol: as §1

MS-ACC from E. coli = biological target: T1, MS-ACC from E. coli (Escherichia coli, UniProt P24182); test: Sensitivity of prokaryotic MS-ACC to inhibition
T1 construct: expressed in transfected cells; host or cells: Pichia pastoris GS115 transformed with pAO815-ACC4 (strain HWA4)

[4] = system: filamentous fungi and yeasts; conditions: growth of numerous filamentous fungi and yeasts; cited from earlier work
[5] = system: Pichia pastoris transformant HWA3p; conditions: MM plates, 30° C., six days
Protocol: For transformation by electroporation, 3-12 μg of Sal I-linearized plasmid pPIC3.5K-BCCP was mixed with the competent cells and pulsed in 0.1 cm electroporation cuvettes at 1.5 kV, 25 μF, and 200Ω using a Gene Pulser (Bio-Rad). Immediately after the pulse, 1 ml of 1 M sorbitol was added to the cuvette and the cells were incubated for regeneration for 1 hour at room temperature. The cell suspension was aliquoted into two sterile Eppendorf tubes, 0.5 ml of YPD medium or MM medium was added, respectively, and the cells were incubated for 3 more hours at room temperature thereby being shaked. 50-200 μl of the aliquotes in YPD were spread on YPD-G418 plates to select G418 resistant transformants, whereas aliquots in MM medium were spread on MM-agar containing 0.02 μg/ml Soraphen A.
Histidine prototrophic or G418 resistant transformants were grown overnight in 20 ml MM medium. The cells were harvested by centrifugation and spotted onto MM plates containing different concentrations of Soraphen A (0-0.1 μg/ml). Duplicated plates were incubated at 30° C. for six days under daily addition of methanol.

bacteria or prokaryotes = conditions: cited from earlier work
[6] = system: acetyl-CoA carboxylase (ACC) of yeast and filamentous fungi; conditions: cited from earlier work
[7] = system: MF-ACC purified from Ustilago maydis; conditions: cited from earlier work
[8] = system: MF-ACC purified from rat liver; conditions: cited from earlier work
Mucor hiemalis = conditions: cited from earlier work
Ustilago zeae = conditions: cited from earlier work

Structure (SMILES): CO[C@H]1CCCC[C@@H](c2ccccc2)OC(=O)[C@@H](C)[C@@]2(O)O[C@H]([C@@H](C)[C@H](O)[C@H]2OC)[C@@H](C)/C=C/[C@H]1OC [Soraphen A]
- Soraphen A concentration leading to complete inhibition of growth [1]: ≤ 0.02 µg/mL
- Soraphen A concentration not inhibiting growth (undiminished growth) [2]: > 0.1 µg/mL
- Soraphen A concentration giving no growth [3]: ≤ 0.02 µg/mL
- sensitivity of MS-ACC to inhibition by Soraphen A (MS-ACC from E. coli): insensitive
- MIC values [4]: below 1 ug/ml
- Soraphen A concentration up to which resistance is fully developed [5]: > 0.1 µg/mL
- sensitivity to Soraphen (bacteria or prokaryotes): generally not sensitive
- inhibition of acetyl-CoA carboxylase (ACC) activity [6]: inhibits
- inhibition of MF-ACC activity in vitro [7]: inhibit
- inhibition of MF-ACC activity in vitro [8]: inhibit
- MIC value (Mucor hiemalis): 0.03 µg/mL (≈ 0.0576 µM)
- MIC value (Ustilago zeae): 4 µg/mL (≈ 7.68 µM)
